# Measured values reported in US20130230459A1, “RADIOLABELLED mGluR2 PET LIGANDS” (Janssen Pharmaceuticals, Inc., priority 2010, published 2013).
# “And” between values parts separate entries of the source, which are not always exact repeats. Equal values may be shown once.
# Test: Biodistribution studies of 11C tracers
# Type: in vivo, Wistar rats
# Details: for SUV Blood / SUV Cerebellum / SUV Cerebrum total / SUV Cortex / SUV Hippocampus / SUV Striatum: normalized for body weight; for % ID present in the carcass: at all time points examined
# Description: Biodistribution studies were carried out in healthy male Wistar rats (body weight 200-450 g) at 2 min, 30 min and 60 min post injection (p.i.) (n=3/time point). Rats were injected with about 11 MBq (2 min, 30 min analysis) or 22 MBq (60 min analysis) of the tracer via tail vein under anesthesia (2.5% isoflurane in O2 at 1 L/min flow rate) and sacrificed by decapitation at above specified time points. Blood and major organs were collected in tared tubes and weighed. The radioactivity in blood, organs and other body parts was measured using an automated gamma counter. The distribution of radioactivity in different parts of the body at different time points p.i. of the tracer was calculated and expressed as percentage of injected dose (% ID), and as percentage of injected dose per gram tissue (% ID/g) for the selected organs. % ID is calculated as cpm in organ/total cpm recovered. For calculation of total radioactivity in blood, blood mass was assumed to be 7% of the body mass.
smiles,measurement,setting,value
"[11CH3]Oc1c(F)ccc(F)c1C1CCN(c2ccn3c(CC4CC4)nnc3c2Cl)CC1 [[^11C]B-2, 8-chloro-3-(cyclopropylmethyl)-7-[4-(3,6-difluoro-2-[^11C]methoxyphenyl)-1-piperidinyl]-1,2,4-triazolo[4,3-a]pyridine]",% ID Blood,2 min p.i.,4.3 % ID and 4.3 ± 0.6 % ID
same,% ID Carcass,2 min p.i.,38.4 ± 2.6 % ID
same,% ID Cerebellum,2 min p.i.,0.17 % ID and 0.174 ± 0.039 % ID
same,% ID Cerebrum total,2 min p.i.,0.69 % ID and 0.691 ± 0.146 % ID
same,% ID Cortex,2 min p.i.,0.097 ± 0.019 % ID
same,% ID Heart,2 min p.i.,4.6 ± 0.6 % ID
same,% ID Hippocampus,2 min p.i.,0.028 ± 0.008 % ID
same,% ID Intestines,2 min p.i.,8.5 ± 0.3 % ID
same,% ID Kidneys,2 min p.i.,6.6 ± 0.7 % ID
same,% ID Liver,2 min p.i.,33.5 ± 1.4 % ID
same,% ID Lungs,2 min p.i.,1.5 ± 0.1 % ID
same,% ID Rest of cerebrum,2 min p.i.,0.535 ± 0.121 % ID
same,% ID Spleen + Pancreas,2 min p.i.,1.4 ± 0.1 % ID
same,% ID Stomach,2 min p.i.,1.4 ± 0.2 % ID
same,% ID Striatum,2 min p.i.,0.032 ± 0.008 % ID
same,% ID Urine,2 min p.i.,0.1 ± 0.0 % ID
same,Total brain uptake,2 min p.i.,0.88 % ID and 0.88 ± 0.2 % ID
same,SUV Blood,2 min p.i.,0.60 ± 0.01
same,SUV Cerebellum,2 min p.i.,1.59 ± 0.03
same,SUV Cerebrum total,2 min p.i.,1.32 ± 0.03
same,SUV Cortex,2 min p.i.,1.46 ± 0.03
same,SUV Hippocampus,2 min p.i.,0.90 ± 0.01
same,SUV Striatum,2 min p.i.,1.22 and 1.22 ± 0.02
same,% ID Blood,30 min p.i.,2.7 ± 0.9 % ID
same,% ID Carcass,30 min p.i.,50.9 ± 3.4 % ID
same,% ID Cerebellum,30 min p.i.,0.291 ± 0.088 % ID
same,% ID Cerebrum total,30 min p.i.,0.914 ± 0.140 % ID
same,% ID Cortex,30 min p.i.,0.118 ± 0.041 % ID
same,% ID Heart,30 min p.i.,2.5 ± 0.8 % ID
same,% ID Hippocampus,30 min p.i.,0.045 ± 0.005 % ID
same,% ID Intestines,30 min p.i.,10.4 ± 1.2 % ID
same,% ID Kidneys,30 min p.i.,4.3 ± 1.0 % ID
same,% ID Liver,30 min p.i.,22.7 ± 3.0 % ID
same,% ID Lungs,30 min p.i.,1.1 ± 0.5 % ID
same,% ID Rest of cerebrum,30 min p.i.,0.704 ± 0.112 % ID
same,% ID Spleen + Pancreas,30 min p.i.,1.4 ± 0.2 % ID
same,% ID Stomach,30 min p.i.,3.7 ± 0.3 % ID
same,% ID Striatum,30 min p.i.,0.047 ± 0.008 % ID
same,% ID Urine,30 min p.i.,0.3 ± 0.1 % ID
same,Total brain uptake,30 min p.i.,1.23 ± 0.2 % ID
same,SUV Blood,30 min p.i.,0.40 ± 0.01
same,SUV Cerebellum,30 min p.i.,2.62 and 2.62 ± 0.04
same,SUV Cerebrum total,30 min p.i.,1.96 ± 0.03
same,SUV Cortex,30 min p.i.,1.77 ± 0.04
same,SUV Hippocampus,30 min p.i.,1.49 ± 0.03
same,SUV Striatum,30 min p.i.,2.14 and 2.14 ± 0.04
same,% ID Blood,60 min p.i.,2.0 % ID and 2.0 ± 0.0 % ID
same,% ID Carcass,60 min p.i.,55.8 ± 9.4 % ID
same,% ID Cerebellum,60 min p.i.,0.142 ± 0.029 % ID
same,% ID Cerebrum total,60 min p.i.,0.558 ± 0.042 % ID
same,% ID Cortex,60 min p.i.,0.080 ± 0.022 % ID
same,% ID Heart,60 min p.i.,1.2 ± 0.2 % ID
same,% ID Hippocampus,60 min p.i.,0.024 ± 0.006 % ID
same,% ID Intestines,60 min p.i.,15.6 ± 2.7 % ID
same,% ID Kidneys,60 min p.i.,2.1 ± 0.2 % ID
same,% ID Liver,60 min p.i.,20.1 ± 7.0 % ID
same,% ID Lungs,60 min p.i.,0.6 ± 0.1 % ID
same,% ID Rest of cerebrum,60 min p.i.,0.421 ± 0.010 % ID
same,% ID Spleen + Pancreas,60 min p.i.,0.7 ± 0.0 % ID
same,% ID Stomach,60 min p.i.,1.7 ± 0.4 % ID
same,% ID Striatum,60 min p.i.,0.033 ± 0.008 % ID
same,% ID Urine,60 min p.i.,0.3 ± 0.1 % ID
same,% ID present in liver and intestines,60 min p.i.,35.7 % ID
same,% ID present in the urinary system,60 min p.i.,2.4 % ID
same,Total brain uptake,60 min p.i.,0.71 ± 0.0 % ID
same,SUV Blood,60 min p.i.,0.30 ± 0.01
same,SUV Cerebellum,60 min p.i.,1.75 ± 0.04
same,SUV Cerebrum total,60 min p.i.,1.11 ± 0.06
same,SUV Cortex,60 min p.i.,1.28 ± 0.02
same,SUV Hippocampus,60 min p.i.,0.73 ± 0.06
same,SUV Striatum,60 min p.i.,1.72 ± 0.02
same,% ID present in the carcass,,~50 % ID
"[11CH3]Oc1ccc(F)cc1C1CCN(c2ccn3c(CC4CC4)nnc3c2Cl)CC1 [[^11C]B-4, 8-chloro-3-(cyclopropylmethyl)-7-[4-[5-fluoro-2-[^11C]methoxyphenyl]-1-piperidinyl]-1,2,4-triazolo[4,3-a]pyridine]",% ID Blood,2 min p.i.,5.6 % ID and 5.6 ± 0.4 % ID
same,% ID Carcass,2 min p.i.,42.0 ± 2.0 % ID
same,% ID Cerebellum,2 min p.i.,0.10 % ID and 0.100 ± 0.000 % ID
same,% ID Cerebrum total,2 min p.i.,0.45 % ID and 0.450 ± 0.029 % ID
same,% ID Cortex,2 min p.i.,0.092 ± 0.019 % ID
same,% ID Heart,2 min p.i.,4.1 ± 0.3 % ID
same,% ID Hippocampus,2 min p.i.,0.010 ± 0.001 % ID
same,% ID Intestines,2 min p.i.,7.3 ± 0.6 % ID
same,% ID Kidneys,2 min p.i.,6.4 ± 0.6 % ID
same,% ID Liver,2 min p.i.,29.9 ± 2.0 % ID
same,% ID Lungs,2 min p.i.,2.9 ± 0.4 % ID
same,% ID Rest of cerebrum,2 min p.i.,0.344 ± 0.047 % ID
same,% ID Spleen + Pancreas,2 min p.i.,1.9 ± 0.2 % ID
same,% ID Stomach,2 min p.i.,1.5 ± 0.3 % ID
same,% ID Striatum,2 min p.i.,0.014 ± 0.001 % ID
same,% ID Urine,2 min p.i.,0.0 ± 0.0 % ID
same,Total brain uptake,2 min p.i.,0.58 % ID and 0.58 ± 0.0 % ID
same,SUV Blood,2 min p.i.,0.80 ± 0.01
same,SUV Cerebellum,2 min p.i.,1.46 and 1.46 ± 0.02
same,SUV Cerebrum total,2 min p.i.,1.39 ± 0.01
same,SUV Cortex,2 min p.i.,1.65 ± 0.02
same,SUV Hippocampus,2 min p.i.,1.04 ± 0.01
same,SUV Striatum,2 min p.i.,1.46 and 1.46 ± 0.02
same,% ID Blood,30 min p.i.,2.8 ± 0.3 % ID
same,% ID Carcass,30 min p.i.,64.3 ± 5.8 % ID
same,% ID Cerebellum,30 min p.i.,0.191 ± 0.030 % ID
same,% ID Cerebrum total,30 min p.i.,0.694 ± 0.117 % ID
same,% ID Cortex,30 min p.i.,0.165 ± 0.081 % ID
same,% ID Heart,30 min p.i.,2.5 ± 0.4 % ID
same,% ID Hippocampus,30 min p.i.,0.026 ± 0.007 % ID
same,% ID Intestines,30 min p.i.,8.3 ± 2.0 % ID
same,% ID Kidneys,30 min p.i.,4.0 ± 0.7 % ID
same,% ID Liver,30 min p.i.,14.2 ± 2.4 % ID
same,% ID Lungs,30 min p.i.,0.7 ± 0.1 % ID
same,% ID Rest of cerebrum,30 min p.i.,0.469 ± 0.047 % ID
same,% ID Spleen + Pancreas,30 min p.i.,1.4 ± 0.2 % ID
same,% ID Stomach,30 min p.i.,2.1 ± 0.3 % ID
same,% ID Striatum,30 min p.i.,0.034 ± 0.005 % ID
same,% ID Urine,30 min p.i.,0.3 ± 0.2 % ID
same,Total brain uptake,30 min p.i.,0.93 ± 0.2 % ID
same,SUV Blood,30 min p.i.,0.40 ± 0.01
same,SUV Cerebellum,30 min p.i.,2.33 ± 0.04
same,SUV Cerebrum total,30 min p.i.,1.66 ± 0.03
same,SUV Cortex,30 min p.i.,1.87 ± 0.02
same,SUV Hippocampus,30 min p.i.,1.57 ± 0.03
same,SUV Striatum,30 min p.i.,2.31 ± 0.04
same,% ID Blood,60 min p.i.,3.3 % ID and 3.3 ± 0.2 % ID
same,% ID Carcass,60 min p.i.,62.8 ± 2.5 % ID
same,% ID Cerebellum,60 min p.i.,0.144 ± 0.021 % ID
same,% ID Cerebrum total,60 min p.i.,0.596 ± 0.128 % ID
same,% ID Cortex,60 min p.i.,0.097 ± 0.039 % ID
same,% ID Heart,60 min p.i.,1.3 ± 0.3 % ID
same,% ID Hippocampus,60 min p.i.,0.021 ± 0.005 % ID
same,% ID Intestines,60 min p.i.,11.1 ± 0.9 % ID
same,% ID Kidneys,60 min p.i.,2.9 ± 0.4 % ID
same,% ID Liver,60 min p.i.,15.4 ± 0.9 % ID
same,% ID Lungs,60 min p.i.,0.5 ± 0.1 % ID
same,% ID Rest of cerebrum,60 min p.i.,0.450 ± 0.086 % ID
same,% ID Spleen + Pancreas,60 min p.i.,1.3 ± 0.2 % ID
same,% ID Stomach,60 min p.i.,1.6 ± 0.3 % ID
same,% ID Striatum,60 min p.i.,0.029 ± 0.009 % ID
same,% ID Urine,60 min p.i.,0.6 ± 0.1 % ID
same,% ID present in liver and intestines,60 min p.i.,26.5 % ID
same,% ID present in the urinary system,60 min p.i.,3.5 % ID
same,Total brain uptake,60 min p.i.,0.76 ± 0.1 % ID
same,SUV Blood,60 min p.i.,0.50 ± 0.00
same,SUV Cerebellum,60 min p.i.,1.68 ± 0.04
same,SUV Cerebrum total,60 min p.i.,1.40 ± 0.03
same,SUV Cortex,60 min p.i.,1.34 ± 0.02
same,SUV Hippocampus,60 min p.i.,1.13 ± 0.02
same,SUV Striatum,60 min p.i.,1.78 ± 0.04
same,% ID present in the carcass,,~56 % ID
